According to patent publication US20190224213A1, “VAGINAL COMPOSITION COMPRISING A COMBINATION OF ESTROGEN AND VITAMIN D” (CHEMO RESEARCH S.L., priority 2016, published 2019):

Assays:
[1] = test system: vaginal atrophy; conditions: vaginal suppository 1000 IU, daily for 8 weeks, 44 postmenopausal women; cited from earlier work
[2] = test system: vaginal epithelium; experiment: Vaginal epithelium thickness evaluation in ovariectomized rats; format: in vivo, rat; conditions: 6-week treatment
Description: (§1) 8-10 weeks-old female Sprague Dawley rats (Janvier, France) are first acclimated during a period of time of one week or more.
(§2) The acclimated rats undergo a bilateral ovariectomy (at “Day 0”), so as to induce an experimental menopause.
(§3) Three weeks after ovariectomy (at Day 21), the ovariectomized rats are divided in five distinct groups of at least eight animals per group, respectively: • Group 1: the ovariectomized rats receive no treatment at all • Group 2: the ovariectomized rats are administered once daily with an ovule comprising a liquid saline (placebo) • Group 3: the ovariectomized rats are administered once daily with an ovule comprising estradiol alone, in the absence of vitamin D analog • Group 4: the ovariectomized rats are administered once daily with an ovule comprising vitamin D analog alone, in the absence of estradiol. • Group 5: the ovariectomized rats are administered once daily with an ovule comprising (i) the combination of estradiol and vitamin D analog.
(§4) Each of the Groups 1, 2, 3, 4 and 5 of ovariectomized rats receives the indicated treatment during a period of time of six weeks (thus until Day 63).
One part of the vagina tissue material is paraffin-embedded. Slices of the paraffin-embedded vaginal tissue are stained for studying and measuring the vaginal epithelium thickness as well as the vaginal epithelium morphology. […]

[3] = test system: vaginal epithelium; experiment: Histology of the vaginal tissue cornified cell layer in ovariectomized rats (FIG. 3); format: in vivo, rat
Procedure: as §3, §4
One part of the vagina tissue material is paraffin-embedded. Slices of the paraffin-embedded vaginal tissue are stained for studying and measuring the vaginal epithelium thickness as well as the vaginal epithelium morphology.
Vaginal tissue is then separated into two parts: • one half is fixed in 10% neutral buffered formalin and paraffin-embedded for epithelium thickness evaluation and morphology (H&E coloration) • the second half will be immediately frozen and stored at −80° C. for further evaluation.
Vaginal tissue is embedded in paraffin, sectioned and stained with hematoxylin/eosine (2 slides/rat) using a fully automated multi-stainer system for histological analysis, the Multistainer ST5020 in conjunction with the CV5030 Coverslipper marketed by the Company Leica Biosystems (Germany).

[4] = Body weight evolution in ovariectomized rats during 6-week local treatment; format: in vivo, rat; conditions: 6-week treatment, irrespective of the dose
Description: as §1, §2, §3, §4
The body weight of each tested animal is monitored twice a week.

[5] = test system: vaginal maturation index and urogenital symptoms; conditions: oral raloxifene 60 mg/day with 400 IU vitamin D and 600 mg calcium, 3 months, vs risedronate-based regimen; cited from earlier work
[6] = test system: vaginal epithelium; conditions: oral 0.500 mcg calcitriol/day, at least one year, vs non-supplemented postmenopausal women; cited from earlier work
[7] = test system: vaginal epithelium; experiment: Vaginal Maturation Index: percentage of cornified cells in vaginal smears of ovariectomized rats; format: in vivo, rat; conditions: calcitriol, irrespectively of the doses tested
Procedure: as §3, §4
(§5) Smears of vaginal tissue are collected from each of the tested animal by gentle scraping along the wall of the vagina the day before the first treatment and the day following the last treatment for determining the Vaginal Maturation Index (VMI).
(§6) For each rat, 2 samples are taken by gentle scraping along the wall of the vagina. […]
(§7) VMI is assessed as a ratio obtained through performing a random count of 3 major cell types. […]

[8] = test system: vaginal epithelium; experiment: Vaginal Maturation Index: percentage of leukocytes in vaginal smears of ovariectomized rats; format: in vivo, rat; conditions: calcitriol alone at 0.006 μg
Procedure: as §3, §4, §5, §6, §7

[9] = Calcium plasma level in ovariectomized rats; format: in vivo, rat
Procedure: as §3, §4

## vitamin D
[1]
  superficial cells in the vaginal epithelium: significant increase
  vaginal pH: significant decrease

## C[C@]12CC[C@@H]3c4ccc(O)cc4CC[C@H]3[C@@H]1CC[C@@H]2O [Estradiol, (17beta)-estra-1,3,5(10)-triene-3,17-diol]
[2]; 0.4 μg dose of estradiol
  vaginal epithelium thickness as compared to placebo: high increase
[3]; 0.02 μg dose of estradiol (FIG. 3B)
  cornified cell layer in histological photograph: does not cause a detectable change
[3]; 0.08 μg estradiol (FIG. 3C)
  cornified cell layer in histological photograph: thickness and a density which increase with the increasing doses
[3]; 0.4 μg estradiol (FIG. 3D)
  cornified cell layer in histological photograph: thickness and a density which increase with the increasing doses
[4]
  body weight evolution: did not cause any change

## O=C(c1ccc(OCCN2CCCCC2)cc1)c1c(-c2ccc(O)cc2)sc2cc(O)ccc12 [raloxifene]
[5]
  vaginal maturation index: improvement
  vaginal pH: improvement

## C=C1/C(=C\C=C2/CCC[C@]3(C)[C@@H]([C@H](C)CCCC(C)(C)O)CC[C@@H]23)C[C@@H](O)C[C@@H]1O [Calcitriol, 1α,25-dihydroxyvitamin D3]
[6]
  squamous maturation of the vaginal epithelium: resulted in squamous maturation
[7]
  content of the vaginal epithelium cornified cells: no significant change
[2]; calcitriol alone, irrespective of the dose tested
  vaginal epithelium thickness as compared to placebo: did not cause any change
[8]
  vaginal epithelium content in leukocytes: no effect
[4]
  body weight evolution: did not cause any change
[9]; Calcitriol 0.08 μg
  calcium plasma level: significance versus placebo: **** (“****” means p<0.001 versus placebo)
[9]; Calcitriol 0.1 μg
  calcium plasma level: significance versus placebo: **** (“****” means p<0.001 versus placebo)
[9]; calcitriol dose 0.006 μg
  calcium plasma level: did not cause any significant change
[9]; dose of 0.08 μg
  calcium plasma level: significantly increased
[9]; dose of 0.1 μg
  calcium plasma level: significantly increased
